Laboratory results as given in publication PMC11763590, “Fluorescence Polarization Immunoassay for Rapid, Sensitive Detection of the Herbicide 2,4-Dichlorophenoxyacetic Acid in Juice and Water Samples” (Biosensors, 2025).

Molecular target: monoclonal antibody against 2,4-D (MAb)
Test: fluorescence polarization titration of tracer with antibody
Assay type: binding

Row | Kd | Compound
1 | 3.2 ± 0.5 nM | O=C(COc1ccc(Cl)cc1Cl)NCCCCNC(=S)Nc1ccc(-c2c3ccc(=O)cc-3oc3cc(O)ccc23)c(C(=O)O)c1 [2,4-D-BDF, 2,4-D-buthylenediamin fluoresceinthiocarbamyl]
2 | 3.7 ± 0.6 nM | O=C(COc1ccc(Cl)cc1Cl)NCC(=O)Nc1ccc(-c2c3ccc(=O)cc-3oc3cc(O)ccc23)c(C(=O)O)c1 [2,4-D-GAF, 2,4-D-glycine aminofluorescein]
